{"source": "patent US9884031B2", "about": "“Use of HDAC inhibitors for treatment of cardiac rhythm disorders” (THE TRUSTEES OF THE UNIVERSITY OF PENNSYLVANIA, priority 2007, dated 2018)", "key": {"connexin40": {"test_system": "connexin40", "experiment": "Immunoblot analysis of atrial connexin40", "type": "in vivo, mouse", "conditions": "TSA-treated Hop transgenic mice, FIG. 3A", "procedure": "(§1) Adult mouse atrium and ventricle were dissected and homogenized in buffer containing 1% Igepal surfactant, 0.5% deoxycholate sodium, 2% SDS, 5 mmol EDTA (pH=7.4), 1% protease inhibitor cocktail tablet (Roche) with and without phosphatase inhibitor cocktail (Sigma-Aldrich). Samples were cleared of debris by centrifugation at 5000 g for 10 min. and the protein concentration was determined using a BCA protein assay kit (Pierce). Protein samples were run on a 4-12% gradient pre-cast SDS-PAGE gel (Invitrogen), and after electrophoresis were transferred onto PVDF membranes (Millipore) using 0.1% acetic acid/10% methanol as a transfer buffer. Membranes were incubated with primary antibodies in 5% milk and PBS overnight at 4° C. and then washed for 5 min, 4 times with TBS-T solution. […] Results were visualized by enhanced chemiluminescence using a commercially available kit (Western Breeze, Invitrogen) and data were recorded on BioMax-MR film (Kodak, Rochester, N.Y.). Densitometry was determined using the Image-J software package (National Institutes of Health). […]"}, "[1]": {"test_system": "models of pressure-overload and angiotensin-induced hypertrophy", "conditions": "cited from earlier work"}, "[2]": {"test_system": "Hop transgenic mice (Hop^Tg)", "experiment": "Invasive hemodynamic measurements", "type": "in vivo, mouse", "conditions": "for Effect upon LVEDP, systolic contraction (peak positive dP/dt) and diastolic relaxation (peak negative dP/dt), in words: TSA-Hop^Tg vs Hop^Tg, treatment initiated at 12-14 weeks of age", "procedure": "Hop^Tg mice 14-18 weeks old were compared with wild-type littermates and TSA treated Hop^Tg mice. Anesthesia was induced with 3% isoflurane and maintained by ventilation with 0.75% isoflurane. Temperature was maintained at 36-37° C. Intracardiac pressures were recorded using a 1.4 French micromanometer catheter (Micro-Tip SPR-671; Millar Instruments) that was zeroed prior to making measurements on each animal in a saline bath. The catheter was inserted via the right carotid artery to record intracardiac pressures and digitized at 2-kHz using a PowerLab/16 SP A/D converter (ADInstruments Ltd.).\nTrichostatin A 0.6 mg/kg daily in a volume of 0.2 mL was given by intraperitoneal injection for 14 consecutive days upon inducible atrial arrhythmias and atrial structurally remodeling in an engineered mouse model with left ventricular hypertrophy and inducible atrial fibrillation. Transgenic mice over-expressing the homeodomain-only protein (Hop^Tg), which promotes cardiac hypertrophy and interstitial fibrosis, were divided into three groups: control, Hop^Tg mice and Hop^Tg mice treated with trichostatin A.\nHop^Tg mice had higher left ventricular end-diastolic pressure (LVEDP), and reduced peak systolic contraction and diastolic relaxation compared to WT mice. However, trichostatin A had no effect upon the LVEDP, systolic contraction or diastolic relaxation when treatment was initiated in animals aged 12-14 weeks of age. These parameters were similar between Hop^Tg and TSA-Hop^Tg mice, though still abnormal when compared to WT mice. In addition, the heart weight to tibia length ratio (HW/TL) was higher in Hop^Tg and TSA-Hop^Tg mice compared to WT, but there was no difference in the HW/TL between Hop^Tg and TSA-Hop^Tg mice. *P<0.05 compared to WT; ^†P<0.05 compared to TSA-Hop^Tg."}, "[3]": {"test_system": "connexin40 and connexin43", "experiment": "Distribution of atrial connexins (quantitative confocal immunodetection)", "type": "in vivo, mouse", "conditions": "TSA-treated Hop^Tg mice", "procedure": "Mice were heparizined, anesthetized with pentobarbital […] and hearts excised through a sternotomy. Hearts were mounted on a Langendorf apparatus, perfused with Tyrode's solution (composition as in Ref. 21) at 3.0-3.5 milliliter [ml]/minute [min] at a temperature of 36°-37° C. Hearts were perfused with Ca^2+-free Tyrode's solution for 6 min., followed by 12-15 min. of perfusion with Ca^2+-free Tyrode's solution containing: collagenase B, collagenase D (Roche Chemical Co.) and protease (Fraction IV, Sigma Chemical Co.). […]\nThe area of immunoreactive signal in discrete spots from isolated atrial myocytes was quantified using laser scanning confocal microscopy. Scanning of single optical slices (<1 μm) by confocal laser scanning microscopy was done on the Leica TCS SP2 system using the spectral detection set for simultaneous fluorescence imaging of Alexa488 and DIC imaging with transmitted light to obtain the cell outline. […] Areas were quantified using the count nuclei application in the Metamorph software package (Molecular Devices). The total area of each atrial myocyte was calculated from the DIC images and the area of the connexin immunoreactive spots was calculated from the Alexa488 fluorescent images."}, "HopX^Tg mice": {"test_system": "HopX^Tg mice", "experiment": "Echocardiographic analysis of ventricular structure and function", "type": "in vivo, mouse", "procedure": "To better characterize the effects of TSA upon ventricular structure and function, echocardiographic analysis of HopX^Tg, TSA-HopX^Tg and WT mice was performed. […] However, TSA had no effect upon these parameters as ventricular wall thickness and systolic function were similar between HopX^Tg and TSA-HopX^Tg mice (Table 4), consistent with the hemodynamic analysis of these animals."}, "phospho-JNK": {"test_system": "phospho-JNK", "experiment": "Western blot of atrium: phospho-JNK", "type": "in vivo, mouse", "conditions": "between Hop^Tg, TSA-Hop^Tg or control mice, FIG. 2B", "procedure": "as §1"}, "connexin43": {"test_system": "connexin43", "experiment": "Immunoblot analysis of atrial connexin43", "type": "in vivo, mouse", "conditions": "WT, Hop and TSA-Hop mice, FIG. 3B", "procedure": "as §1"}, "[4]": {"conditions": "TSA 0.6 mg/kg daily IP 14 days, Hop^Tg mice, n = 8, mean±SD"}, "[5]": {"conditions": "TSA-treated HopX^Tg mice, n = 4, echocardiography"}}, "note": "Marks after values point to notes of the source that are not given here.", "data": [{"compound": "CC(/C=C/C(=O)NO)=C\\[C@@H](C)C(=O)c1ccc(N(C)C)cc1", "note": "[TSA, Trichostatin A]", "values": [{"measurement": "Atrial connexin40 expression", "setting": "connexin40", "result": "normalized"}, {"measurement": "Myocardial mechanical function, in words", "setting": "[1]", "result": "improve"}, {"measurement": "Heart rate", "setting": "[2]; [4]", "result": "392 ± 63.5", "unit": "bpm"}, {"measurement": "LV end diastolic pressure", "setting": "[2]; [4]", "result": "7.2 ± 2.4* mmHg"}, {"measurement": "LV systolic pressure", "setting": "[2]; [4]", "result": "90.6 ± 8.8", "unit": "mmHg"}, {"measurement": "Peak negative dP/dt", "setting": "[2]; [4]", "result": "−2267 ± 1320* mmHg/s"}, {"measurement": "Peak positive dP/dt", "setting": "[2]; [4]", "result": "6465 ± 1613", "unit": "mmHg/s"}, {"measurement": "Effect upon LVEDP, systolic contraction (peak positive dP/dt) and diastolic relaxation (peak negative dP/dt), in words", "setting": "[2]", "result": "no significant changes"}, {"measurement": "Effect upon LVEDP, systolic contraction (peak positive dP/dt) and diastolic relaxation (peak negative dP/dt), in words", "setting": "[2]; listed as trichostatin A", "result": "no effect"}, {"measurement": "Distribution of connexin40 and connexin43 in the atrium", "setting": "[3]", "result": "restored"}, {"measurement": "Ventricular wall thickness and systolic function, in words", "setting": "HopX^Tg mice; TSA-HopX^Tg vs HopX^Tg mice, echocardiography", "result": "no effect"}, {"measurement": "Intra-ventricle Septum", "setting": "HopX^Tg mice; [5]", "result": "1.13 ± 0.18", "unit": "mm"}, {"measurement": "LV Ejection Fraction", "setting": "HopX^Tg mice; [5]", "result": "87.7 ± 7.00", "unit": "%"}, {"measurement": "LV Fractional Shortening", "setting": "HopX^Tg mice; [5]", "result": "53.9 ± 0.50", "unit": "%"}, {"measurement": "Left Ventricle Posterior Wall", "setting": "HopX^Tg mice; [5]", "result": "1.10 ± 0.14", "unit": "mm"}, {"measurement": "Left ventricular wall dimensions, in words", "setting": "HopX^Tg mice; older 14-18 week-old HopX^Tg mice treated with TSA", "result": "no change"}, {"measurement": "Phospho-JNK protein expression in atrium", "setting": "phospho-JNK", "result": "not different"}, {"measurement": "Atrial connexin43 expression", "setting": "connexin43", "result": "no changes"}]}]}
